IC50 data for two compounds are collected here from BindingDB's records for doi:10.1016/j.chembiol.2014.09.011 (Astrazeneca R&D, 2014).

Assay in all cases: AMPD Enzymatic Activity Assay
What all share (conditions): pH 7.4

For assay [1], the target named is T1, AMP deaminase 2 (Rattus norvegicus, UniProt Q02356).
T1 sequence (Q02356 whole entry): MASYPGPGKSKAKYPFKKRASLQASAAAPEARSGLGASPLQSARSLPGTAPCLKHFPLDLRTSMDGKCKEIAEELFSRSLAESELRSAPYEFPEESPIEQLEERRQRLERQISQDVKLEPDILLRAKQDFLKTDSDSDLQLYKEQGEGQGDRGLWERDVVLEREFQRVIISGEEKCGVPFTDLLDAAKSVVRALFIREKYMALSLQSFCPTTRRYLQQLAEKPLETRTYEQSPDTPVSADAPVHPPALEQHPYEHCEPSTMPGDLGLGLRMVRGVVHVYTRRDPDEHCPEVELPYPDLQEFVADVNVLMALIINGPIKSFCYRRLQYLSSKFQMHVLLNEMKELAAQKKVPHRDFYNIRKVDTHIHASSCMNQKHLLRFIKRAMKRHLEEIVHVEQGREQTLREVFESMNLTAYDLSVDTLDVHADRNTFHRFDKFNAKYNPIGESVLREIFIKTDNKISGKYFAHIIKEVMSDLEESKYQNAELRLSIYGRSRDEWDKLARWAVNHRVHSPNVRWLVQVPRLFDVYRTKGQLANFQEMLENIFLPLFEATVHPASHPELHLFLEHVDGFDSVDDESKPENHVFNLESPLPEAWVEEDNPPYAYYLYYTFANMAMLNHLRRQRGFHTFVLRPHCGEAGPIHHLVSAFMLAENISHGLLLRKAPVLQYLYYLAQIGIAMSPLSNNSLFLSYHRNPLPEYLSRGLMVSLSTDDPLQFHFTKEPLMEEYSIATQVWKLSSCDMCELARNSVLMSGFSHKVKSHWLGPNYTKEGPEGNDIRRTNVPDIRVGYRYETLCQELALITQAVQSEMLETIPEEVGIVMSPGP
As to the method: (§1) AMPD1 was added to buffer A (50 mM HEPES, 150 mM KCl, 5 mM MgCl2, and 0.5 mMglutathione [pH 7.4]) to a concentration of 10 nM. A substrate mix consistingof 2mMNADPH, 6mMa-ketoglutarate, 8mMAMP, and 15 U GDH was prepared in buffer A. Substrate mix ([…]) was added to the plate, followed by centrifugation and incubation for 1 hr. Detection was by absorbance at 340 nm following the conversion of NADPH to NADP+. Recombinant AMPD enzyme activity assays were performed in a 384-well format using the same conditions as described above, except the assay volume was […] and the AMP concentration for the AMPD2 assay was 8 mM. Different AMPD enzyme concentrations were used to have linear reactions: hAMPD1 (4 nM), hAMPD2 (38 nM), hAMPD3 (1 nM), rAMPD1 (116 nM), rAMPD2 (53 nM), rAMPD3 (31 nM), and mAMPD1 (816 nM).

The target in assay [2] is T2, AMP deaminase 1 (Mus musculus, UniProt Q3V1D3).
T2 sequence (Q3V1D3 whole entry): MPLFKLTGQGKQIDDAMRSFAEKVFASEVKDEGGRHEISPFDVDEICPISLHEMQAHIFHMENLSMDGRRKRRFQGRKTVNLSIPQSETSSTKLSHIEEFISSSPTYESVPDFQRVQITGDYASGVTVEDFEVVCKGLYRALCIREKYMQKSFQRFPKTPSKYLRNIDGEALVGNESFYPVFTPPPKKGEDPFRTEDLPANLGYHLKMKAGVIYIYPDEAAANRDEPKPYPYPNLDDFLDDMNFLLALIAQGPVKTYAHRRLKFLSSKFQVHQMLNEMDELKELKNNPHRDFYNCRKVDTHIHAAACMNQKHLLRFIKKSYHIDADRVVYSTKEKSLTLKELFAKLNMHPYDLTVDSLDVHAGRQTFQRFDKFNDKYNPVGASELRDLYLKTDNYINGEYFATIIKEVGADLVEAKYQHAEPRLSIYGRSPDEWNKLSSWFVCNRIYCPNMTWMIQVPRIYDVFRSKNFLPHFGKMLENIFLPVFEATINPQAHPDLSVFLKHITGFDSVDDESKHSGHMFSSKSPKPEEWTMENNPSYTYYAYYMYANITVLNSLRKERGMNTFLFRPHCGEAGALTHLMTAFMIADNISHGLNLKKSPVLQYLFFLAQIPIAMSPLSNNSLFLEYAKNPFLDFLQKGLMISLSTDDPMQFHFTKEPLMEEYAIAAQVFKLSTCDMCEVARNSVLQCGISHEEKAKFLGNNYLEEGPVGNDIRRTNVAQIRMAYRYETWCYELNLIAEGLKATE
As to the method:
as §1

The target of assay [3] is T3, AMP deaminase 1 (Rattus norvegicus, UniProt P10759).
T3 sequence (P10759 whole entry): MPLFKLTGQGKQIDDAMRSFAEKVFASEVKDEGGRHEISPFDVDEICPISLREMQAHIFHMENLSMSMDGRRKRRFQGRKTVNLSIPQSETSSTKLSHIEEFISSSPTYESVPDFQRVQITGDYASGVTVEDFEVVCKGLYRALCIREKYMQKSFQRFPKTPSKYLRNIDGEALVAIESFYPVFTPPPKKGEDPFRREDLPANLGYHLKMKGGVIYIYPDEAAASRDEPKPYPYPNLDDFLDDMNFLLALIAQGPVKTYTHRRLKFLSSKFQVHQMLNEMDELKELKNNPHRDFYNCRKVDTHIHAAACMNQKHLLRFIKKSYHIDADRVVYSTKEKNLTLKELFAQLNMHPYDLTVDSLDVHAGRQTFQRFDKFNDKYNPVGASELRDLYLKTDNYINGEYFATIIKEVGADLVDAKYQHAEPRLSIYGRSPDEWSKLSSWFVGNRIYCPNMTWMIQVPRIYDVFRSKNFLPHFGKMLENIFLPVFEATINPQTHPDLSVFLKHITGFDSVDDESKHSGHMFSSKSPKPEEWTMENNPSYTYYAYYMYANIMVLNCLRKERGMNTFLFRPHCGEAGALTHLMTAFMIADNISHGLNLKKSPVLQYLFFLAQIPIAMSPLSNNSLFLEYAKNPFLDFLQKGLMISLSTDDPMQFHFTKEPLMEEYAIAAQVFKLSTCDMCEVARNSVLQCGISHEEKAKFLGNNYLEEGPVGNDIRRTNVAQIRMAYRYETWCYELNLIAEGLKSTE
As to the method: as §1

Assay [4] deals with T4, AMP deaminase 1 (Homo sapiens, UniProt P23109).
T4 sequence (P23109 whole entry): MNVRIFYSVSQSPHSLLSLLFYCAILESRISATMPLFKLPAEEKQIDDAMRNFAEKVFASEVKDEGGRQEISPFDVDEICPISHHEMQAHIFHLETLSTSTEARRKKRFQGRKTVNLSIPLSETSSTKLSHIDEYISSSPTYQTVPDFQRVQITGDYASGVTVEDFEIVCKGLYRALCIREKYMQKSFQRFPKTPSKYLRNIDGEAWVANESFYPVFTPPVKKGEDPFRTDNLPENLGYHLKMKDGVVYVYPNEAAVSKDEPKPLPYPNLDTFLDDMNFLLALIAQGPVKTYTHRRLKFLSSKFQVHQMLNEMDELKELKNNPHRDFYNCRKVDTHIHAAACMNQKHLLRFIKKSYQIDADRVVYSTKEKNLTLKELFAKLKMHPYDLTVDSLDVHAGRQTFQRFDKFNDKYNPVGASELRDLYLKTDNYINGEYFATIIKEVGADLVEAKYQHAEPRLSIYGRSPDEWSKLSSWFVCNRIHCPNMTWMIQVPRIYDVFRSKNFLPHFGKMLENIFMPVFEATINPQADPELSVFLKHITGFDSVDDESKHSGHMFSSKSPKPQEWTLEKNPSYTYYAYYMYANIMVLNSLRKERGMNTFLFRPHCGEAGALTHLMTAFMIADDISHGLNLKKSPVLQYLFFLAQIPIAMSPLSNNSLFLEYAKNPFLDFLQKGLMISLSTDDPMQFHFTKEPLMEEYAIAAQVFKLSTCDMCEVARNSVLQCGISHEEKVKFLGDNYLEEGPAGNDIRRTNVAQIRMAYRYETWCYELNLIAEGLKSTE
As for the experimental part: as §1

Structures are written as SMILES.

Turning to `COc1cc(-c2ccc(CN[C@H](C)c3cccc4ccncc34)cc2)ccc1C(=O)O` [4-[4-({[(1R)-1-(isoquinolin-8-yl)ethyl]amino}methyl)phenyl]-2-methoxybenzoic acid (Compound 4)], the IC50 in assay [1] came to 300 nM; in assay [2] it was 20 nM; in assay [3] it was 20 nM; in assay [4], 24 nM.
Regarding `C[C@@H](NCc1ccc(-c2ccc(C(=O)O)cn2)cc1)c1cccc2ccccc12` [6-[4-({[(1R)-1-(naphthalen-1-yl)ethyl]amino}methyl)phenyl]pyridine-3-carboxylic acid (Compound 1)], in assay [4], the IC50 was found to be 620 nM.

As a reminder, the IC50 is the concentration needed to halve the response being measured. Low readings indicate greater potency, high ones weaker potency.
